# Experimental data published in patent publication US20180171280A1, “CELL CULTURE EXPOSURE SYSTEM (CCES)” (priority 2016, published 2018).
# How the values were obtained:
# [1] = tested on: Human primary lung cells; test: CellTiter-Glo Luminescent Cell Viability Assay after ALI exposure in the CCES, human primary lung cells; format: cell-based; settings: 2 h ALI exposure, 4 h post-exposure, Inc. Ct. = 100; for CellTiter-Glow viability, Average: average of 3 experiments
# Description: (§1) The Cell Culture Exposure System (CCES) provides the ability to expose cultured mammalian cells to airborne chemicals at ALI conditions in a 24-well format.
# Human primary lung cells were collected by cytology brush biopsy during bronchoscopy at EPA clinical facility in Chapel Hill. Cells were cultured by standard procedures and were provided to EPA/RTP.
# Cells were cultured and plated onto Transwell membranes and grown out for 28 days as described in OP.
# (§2) Cells were placed into new 24-well plates with fresh growth media and put at ALI 2 h prior to exposure. […] Control cells were exposed simultaneously to clean air for 2 h in a separate chamber. Another set of control cells were kept at ALI in an incubator (37° C., 5% CO2) for 2 h. After the exposure, cells were placed in an incubator (37° C., 5% CO2) for 4 h. A total of three exposures were conducted for each cell type.
# (§3) The CellTiter-Glo® Luminescent Cell Viability Assay (Promega) determines the number of viable cells based on quantification of the ATP present; an indicator of metabolically active cells. […] Two inserts per exposure condition were measured for each run.
# [2] = tested on: BEAS-2B cells; test: CellTiter-Glo Luminescent Cell Viability Assay after ALI exposure in the CCES, BEAS-2B cells; format: cell-based, human; settings: 2 h ALI exposure, 4 h post-exposure, Inc. Ct. = 100; for CellTiter-Glow viability, Average: average of 3 experiments
# Description: as §1
# The BEAS-2B cell line, obtained from ATTC, is an immortalized human bronchial epithelial lung cell.
# Cells were grown out on T75 cm^2 flasks in complete Keratinocyte Growth Media (KGM) (KGM-Gold Bullet Kit, Lonza®). Cells were passaged and seeded onto 6.5 mm (24-well format) permeable (0.4-μm pore size) Transwell polyester membranes at passages 55 and 56. Prior to seeding, Transwells were coated with PureCol® bovine collagen (Advanced Biometrix) at a density of 10 μg/cm^2. Cells were seeded at 3.0×10^4 cells per Transwell membranes 48 h prior to exposure and at 1.5×10^4 per Transwell membrane 72 h prior to exposure to obtain a confluent monolayer. Cells were seeded on 4 inserts per exposure condition for each run.
# as §2, §3
smiles,measurement,setting,value
"C=CC=C [1,3-Butadiene, 1,3-butadiene]","CellTiter-Glow viability, May 3, 2017",[1]; 0.16 ppm,110.9
same,"CellTiter-Glow viability, May 4, 2017",[1]; 0.16 ppm,99.9
same,"CellTiter-Glow viability, May 5, 2017",[1]; 0.16 ppm,90.1
same,"CellTiter-Glow viability, Average",[1]; 0.16 ppm,100.3
same,"CellTiter-Glow viability, May 3, 2017",[1]; 0.5 ppm,118.5
same,"CellTiter-Glow viability, May 4, 2017",[1]; 0.5 ppm,86.3
same,"CellTiter-Glow viability, May 5, 2017",[1]; 0.5 ppm,94.2
same,"CellTiter-Glow viability, Average",[1]; 0.5 ppm,99.6
same,"CellTiter-Glow viability, May 3, 2017",[1]; 1.7 ppm,120.3
same,"CellTiter-Glow viability, May 4, 2017",[1]; 1.7 ppm,91.8
same,"CellTiter-Glow viability, May 5, 2017",[1]; 1.7 ppm,101.4
same,"CellTiter-Glow viability, Average",[1]; 1.7 ppm,104.5
same,"CellTiter-Glow viability, May 3, 2017",[1]; 5 ppm,122.0
same,"CellTiter-Glow viability, May 4, 2017",[1]; 5 ppm,112.0
same,"CellTiter-Glow viability, May 5, 2017",[1]; 5 ppm,98.6
same,"CellTiter-Glow viability, Average",[1]; 5 ppm,110.8
same,"CellTiter-Glow viability, May 3, 2017",[1]; 16 ppm,128.1
same,"CellTiter-Glow viability, May 4, 2017",[1]; 16 ppm,101.3
same,"CellTiter-Glow viability, May 5, 2017",[1]; 16 ppm,98.9
same,"CellTiter-Glow viability, Average",[1]; 16 ppm,109.4
same,"CellTiter-Glow viability, May 3, 2017",[1]; 50 ppm,104.7
same,"CellTiter-Glow viability, May 4, 2017",[1]; 50 ppm,92.7
same,"CellTiter-Glow viability, May 5, 2017",[1]; 50 ppm,95.4
same,"CellTiter-Glow viability, Average",[1]; 50 ppm,97.6
same,"CellTiter-Glow Viability, May 10, 2017",[2]; 0.16 ppm,96.27
same,"CellTiter-Glow Viability, May 11, 2017",[2]; 0.16 ppm,87.14
same,"CellTiter-Glow Viability, May 12, 2017",[2]; 0.16 ppm,96.95
same,"CellTiter-Glow viability, Average",[2]; 0.16 ppm,93.45
same,"CellTiter-Glow Viability, May 10, 2017",[2]; 0.5 ppm,101.8
same,"CellTiter-Glow Viability, May 11, 2017",[2]; 0.5 ppm,89.3
same,"CellTiter-Glow Viability, May 12, 2017",[2]; 0.5 ppm,96.1
same,"CellTiter-Glow viability, Average",[2]; 0.5 ppm,95.73
same,"CellTiter-Glow Viability, May 10, 2017",[2]; 1.7 ppm,94.35
same,"CellTiter-Glow Viability, May 11, 2017",[2]; 1.7 ppm,94.49
same,"CellTiter-Glow Viability, May 12, 2017",[2]; 1.7 ppm,95.83
same,"CellTiter-Glow viability, Average",[2]; 1.7 ppm,94.89
same,"CellTiter-Glow Viability, May 10, 2017",[2]; 5 ppm,105.3
same,"CellTiter-Glow Viability, May 11, 2017",[2]; 5 ppm,81.9
same,"CellTiter-Glow Viability, May 12, 2017",[2]; 5 ppm,96.8
same,"CellTiter-Glow viability, Average",[2]; 5 ppm,94.66
same,"CellTiter-Glow Viability, May 10, 2017",[2]; 16 ppm,101.5
same,"CellTiter-Glow Viability, May 11, 2017",[2]; 16 ppm,87.31
same,"CellTiter-Glow Viability, May 12, 2017",[2]; 16 ppm,79.14
same,"CellTiter-Glow viability, Average",[2]; 16 ppm,89.33
same,"CellTiter-Glow Viability, May 10, 2017",[2]; 50 ppm,105.1
same,"CellTiter-Glow Viability, May 11, 2017",[2]; 50 ppm,71.1
same,"CellTiter-Glow Viability, May 12, 2017",[2]; 50 ppm,9.72
same,"CellTiter-Glow viability, Average",[2]; 50 ppm,61.99
